Laboratory results from the supplement of paper PMC7840683.

Test system: HepaRG
Assay: LDH release cytotoxicity, % of total lysis control; higher = more cytotoxic
Conditions: 48 h
Summary of the method: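 The CytoTox-ONE kit was used to read LDH in 50 µL spent medium as resorufin fluorescence on a Tecan Safire, with 0.1% Triton X added to total lysis wells. Beforehand, single-lot HepaRG cells on collagen I-coated 96-well plates had been exposed in duplicate for 48 h to eight-point half-log series (top 100 µM) in serum-free induction medium containing 0.5% DMSO. Percent cytotoxicity was normalized against on-plate vehicle and total lysis controls and averaged over duplicates.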

CC(=O)CC(c1ccccc1)C1C(=O)Oc2ccccc2C1=O (centres undefined) [Warfarin]
Conditions	LDH release cytotoxicity [%]
0.03162 µM	-1.66
0.1 µM	-1.26
0.3162278 µM	-0.808
1 µM	-0.262
3.16228 µM	-0.866
10 µM	-0.731
31.6228 µM	0.385
100 µM	2.56

Cc1occc1C(=O)Nc1ccc(C(=O)N2CCC(F)(F)/C(=C\C(=O)N3CCC(N4CCCCC4)CC3)c3ccccc32)cc1 [YM218]
Conditions	LDH release cytotoxicity [%]
0.01976 µM	-1.36
0.0625 µM	-1.93
0.197642 µM	-3.13
0.625 µM	-2.977
1.976424 µM	-3.81
6.25 µM	-2.99
19.7642 µM	-1.84
62.5 µM	19.8

c1ccc(C(OC2CCCN(CCc3ccc4c(c3)OCO4)C2)c2ccccc2)cc1 (centres undefined) [Zamifenacin]
Conditions	LDH release cytotoxicity [%]
0.03162 µM	-1.023
0.1 µM	-1.51
0.3162278 µM	-1.31
1 µM	-1.54
3.16228 µM	-1.68
10 µM	-1.11
31.6228 µM	2
100 µM	51.7

O=C(O)Cn1c(=O)n(Cc2ccc(Br)cc2F)c(=O)c2ccc(Cl)cc21 [Zenarestat]
Conditions	LDH release cytotoxicity [%]
0.03162 µM	-0.858
0.1 µM	-0.293
0.3162278 µM	-0.841
1 µM	-0.408
3.16228 µM	-0.109
10 µM	0.443
31.6228 µM	-0.513
100 µM	0.792

CN(C)C(=S)[S-].CN(C)C(=S)[S-].[Zn+2] [Ziram]
Conditions	LDH release cytotoxicity [%]
0.03162 µM	-1.6
0.1 µM	-1.5
0.3162278 µM	-1.92
1 µM	-1.52
3.16228 µM	-1.1
10 µM	-0.764
31.6228 µM	37.6
100 µM	46.8

CCC(C)(NC(=O)c1cc(Cl)c(C)c(Cl)c1)C(=O)CCl (centres undefined) [Zoxamide]
Conditions	LDH release cytotoxicity [%]
0.0317809 µM	-0.27
0.1005 µM	-0.966
0.317809 µM	-0.7429
1.005 µM	-1.43
3.17809 µM	-0.947
10.05 µM	-0.343
31.7809 µM	-1.15
100.5 µM	41.9

CC(C=CC1=C(C)CCCC1(C)C)=CC=CC(C)=CC(=O)O [all-trans-Retinoic acid]
Conditions	LDH release cytotoxicity [%]
0.03162 µM	-2.15
0.1 µM	-2.16
0.3162278 µM	-1.95
1 µM	-2.25
3.16228 µM	-2.56
10 µM	-1.87
31.6228 µM	-1.86
100 µM	2.13

OCC1OC2OC3C(CO)OC(OC4C(CO)OC(OC5C(CO)OC(OC6C(CO)OC(OC7C(CO)OC(OC1C(O)C2O)C(O)C7O)C(O)C6O)C(O)C5O)C(O)C4O)C(O)C3O (stereo not drawn) [alpha-Cyclodextrin]
Conditions	LDH release cytotoxicity [%]
0.016602 µM	-2.18
0.0525 µM	-2.3
0.16602 µM	-1.73
0.525 µM	-2.65
1.6602 µM	-2.1
5.25 µM	-1.71
16.601958 µM	-1.44
52.5 µM	0.413

CC(=O)C(C)=CC1C(C)=CCCC1(C)C (stereo not drawn) [alpha-Isomethylionone]
Conditions	LDH release cytotoxicity [%]
0.03162 µM	-0.906
0.1 µM	-1.92
0.3162278 µM	-1.73
1 µM	-1.69
3.16228 µM	-1.11
10 µM	-1.8
31.6228 µM	-0.46
100 µM	0.422

ClC1C(Cl)C(Cl)C(Cl)C(Cl)C1Cl (stereo not drawn) [beta-Hexachlorocyclohexane]
Conditions	LDH release cytotoxicity [%]
0.03162 µM	-4.28
0.1 µM	-4.78
0.3162278 µM	-4.47
1 µM	-4.51
3.16228 µM	-3.52
10 µM	-2.88
31.6228 µM	-2.3
100 µM	-0.552

CCC(c1ccc(O)cc1)C(CC)c1ccc(O)cc1 (stereo not drawn) [meso-Hexestrol]
Conditions	LDH release cytotoxicity [%]
0.03162 µM	-1.95
0.1 µM	-2.35
0.3162278 µM	-1.46
1 µM	-1.95
3.16228 µM	-1.99
10 µM	-1.59
31.6228 µM	0.514
100 µM	75.4

Clc1ccc(C(c2ccccc2Cl)C(Cl)(Cl)Cl)cc1 (centres undefined) [o,p'-DDT]
Conditions	LDH release cytotoxicity [%]
0.03162 µM	0.598
0.1 µM	-1.38
0.3162278 µM	-0.542
1 µM	-0.286
3.16228 µM	2.06
10 µM	10.3
31.6228 µM	12.9
100 µM	8.46

COC1C(OC(=O)NC(=O)CCl)CCC2(CO2)C1C1(C)OC1CC=C(C)C (centres undefined) [o-(Chloroacetylcarbamoyl)fumagillol]
Conditions	LDH release cytotoxicity [%]
0.01012 µM	-1.03
0.032 µM	-2.16
0.101193 µM	-2.32
0.32 µM	-2.5
1.01193 µM	-1.78
3.2 µM	-1.64
10.1193 µM	-0.944
32 µM	0.233

Cc1cc(N=Nc2ccccc2C)ccc1N [o-Aminoazotoluene]
Conditions	LDH release cytotoxicity [%]
0.03162 µM	1.25
0.1 µM	0.0136
0.3162278 µM	-0.529
1 µM	-1.5
3.16228 µM	0.597
10 µM	-0.361
31.6228 µM	-0.392
100 µM	1.11

Cc1ccccc1O [o-Cresol]
Conditions	LDH release cytotoxicity [%]
0.03162 µM	-1.5
0.1 µM	-1.22
0.3162278 µM	-1.45
1 µM	-2.213
3.16228 µM	-1.71
10 µM	-0.686
31.6228 µM	-0.0502
100 µM	12.99

Clc1ccc(C(c2ccc(Cl)cc2)C(Cl)Cl)cc1 [p,p'-DDD]
Conditions	LDH release cytotoxicity [%]
0.03162 µM	-1.25
0.1 µM	-1.27
0.3162278 µM	-2.03
1 µM	-1.62
3.16228 µM	-0.977
10 µM	-1.35
31.6228 µM	-1.4
100 µM	0.26

ClC(Cl)=C(c1ccc(Cl)cc1)c1ccc(Cl)cc1 [p,p'-DDE]
Conditions	LDH release cytotoxicity [%]
0.03162 µM	-0.311
0.1 µM	-0.017
0.3162278 µM	-0.636
1 µM	-0.675
3.16228 µM	0.0542
10 µM	-0.0981
31.6228 µM	0.0466
100 µM	0.471

Brc1ccc(Oc2ccccc2)cc1 [p-Bromodiphenyl ether]
Conditions	LDH release cytotoxicity [%]
0.03162 µM	-0.849
0.1 µM	-1.4
0.3162278 µM	-1.66
1 µM	-1.42
3.16228 µM	-0.77
10 µM	-0.841
31.6228 µM	0.599
100 µM	3.7

Cc1ccc(O)cc1 [p-Cresol]
Conditions	LDH release cytotoxicity [%]
0.03162 µM	-0.87
0.1 µM	-2.34
0.3162278 µM	-1.45
1 µM	-0.608
3.16228 µM	-1.02
10 µM	-1.22
31.6228 µM	-0.051
100 µM	1.76

Cc1ccc(C(C)C)cc1 [p-Cymene]
Conditions	LDH release cytotoxicity [%]
0.01581 µM	-0.487
0.05 µM	-1.9
0.1581139 µM	-3.02
0.5 µM	-2.63
1.5811388 µM	-1.96
5 µM	-2.1
15.8114 µM	-1.51
50 µM	0.041

CC(C)(C)OOC(=O)c1ccccc1 [tert-Butyl perbenzoate]
Conditions	LDH release cytotoxicity [%]
0.03162 µM	-1.33
0.1 µM	-1.77
0.3162278 µM	-1.063
1 µM	-2.35
3.16228 µM	-1.04
10 µM	-1.63
31.6228 µM	-0.865
100 µM	0.38

CC(C)(C)c1ccccc1 [tert-Butylbenzene]
Conditions	LDH release cytotoxicity [%]
0.03162 µM	-3.19
0.1 µM	-2.41
0.3162278 µM	-1.88
1 µM	-2.09
3.16228 µM	-1.34
10 µM	-1.35
31.6228 µM	-0.245
100 µM	0.779

CC(C)(C)c1cc(O)ccc1O [tert-Butylhydroquinone]
Conditions	LDH release cytotoxicity [%]
0.03162 µM	-1.59
0.1 µM	-1.78
0.3162278 µM	-2.28
1 µM	-2.78
3.16228 µM	-3.35
10 µM	-3.59
31.6228 µM	-4.19
100 µM	-3.84
